Source: paper PMC5432571 (Frontiers in Molecular Neuroscience, 2017)
Positions count from the first letter of the chain named. Like-named read-outs stand apart in the source and are kept apart here.

How the values were obtained:
[1] = molecular target: T1, G254A-α1 GlyR (Homo sapiens, UniProt P23415, G282A); assay: Whole-cell patch-clamp of glycine-induced currents, G254A-α1 GlyR mutant expressed in CHO cells; assay type: cell-based; conditions: for inhibition at 30 µM / inhibition at 100 µM / inhibition at 300 µM: CHO, long application protocol, read-out: inhibition of G254A-α1 GlyR mediated currents; for inhibition at 30 µM: NFA 30 μM; for inhibition at 100 µM: NFA 100 μM; for inhibition at 300 µM: NFA 300 μM
T1 construct: expressed in transfected cells; host or cells: CHO cells
T1 sequence (P23415 29-449 isoform P23415-2 G282A limits assumed): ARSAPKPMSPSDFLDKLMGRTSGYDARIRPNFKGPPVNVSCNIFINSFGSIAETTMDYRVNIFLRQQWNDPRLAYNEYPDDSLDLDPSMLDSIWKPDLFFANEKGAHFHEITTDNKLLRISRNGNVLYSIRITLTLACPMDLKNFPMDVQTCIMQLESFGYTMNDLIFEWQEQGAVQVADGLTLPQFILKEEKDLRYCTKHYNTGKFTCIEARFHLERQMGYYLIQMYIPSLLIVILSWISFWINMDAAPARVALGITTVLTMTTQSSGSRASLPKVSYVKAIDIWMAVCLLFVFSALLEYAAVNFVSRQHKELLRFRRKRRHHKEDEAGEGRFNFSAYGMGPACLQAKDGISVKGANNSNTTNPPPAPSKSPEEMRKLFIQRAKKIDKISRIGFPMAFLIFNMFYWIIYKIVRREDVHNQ
Protocol: (§1) The experiments were carried out on cultured Chinese hamster ovary (CHO) cells obtained from the American Type Tissue Culture Collection (ATCC, Molsheim, France) that were maintained in culture conditions as previously described (Mukhtarov et al., [2013]; Maleeva et al., [2015]).
(§2) One day before transfection, cells were plated on the cover slips (12 mm in diameter) and placed inside 35-mm cell culture dishes with 2 ml of medium. Transfection was performed using the Lipofectamine 3000 protocol (Life Technology, USA). To facilitate identification of transfected cells a green fluorescent protein (GFP) was added to the transfection mixture. For expression of functional heteromeric receptors, cells were simultaneously transfected with cDNAs of α and β subunits in the ratio 1:10. Three hours after the initial exposure of cells to the cDNAs the culture medium was replaced with that containing strychnine (1 μM), which prevents spontaneous activation of GlyRs. Electrophysiological recordings were performed in the fluorescent cells 24–72 h after transfection.
(§3) Whole-cell and outside-out recordings were performed at room temperature (20–25°C) using an EPC-9 amplifier (HEKA Elektronik, Germany). Cells were continuously superfused with external solution containing (mM): NaCl 140, CaCl2 2, KCl 2.8, MgCl2 4, HEPES 20, glucose 10; pH 7.4; 320–330 mOsm. Intracellular solution used for filling recording patch pipettes contained (mM): CsCl 140, CaCl2 6, MgCl2 2, MgATP 2, NaGTP 0.4, HEPES/CsOH 10, BAPTA (tetrapotassium salt) 2; pH 7.3; 290 mOsm. Two different protocols of solutions application were used in this study. […] A “ramp protocol” implies the gradual change of Vhold alternately from −80 to +80 mV and from +80 to −80 mV during 1 s, Vhold was fixed at −80 or +80 mV at the beginning and at the end of the ramp for 500 ms (Figure 2B).
(§4) Recording pipettes were pulled from borosilicate glass capillaries (Harvard Apparatus Ltd, USA) and had resistances of 5–10 MOhm. For the rapid replacement of the solutions, the fast application system was used. Three parallel rectangular tubes (100 × 100 μm) were positioned 40–50 μm above the recorded cell. The movement of the tubes was controlled by a computer-driven fast exchange system (SF 77A Perfusion Fast-Step, Warner, USA) allowing a 10–90% solution exchange in 3–5 ms, as measured by open electrode controls (1/10 external solution/water). Cells with low input resistance (<150 MOhm) and a rapid run-down (>30% with repetitive application) were excluded from analysis.
(§5) Electrophysiological recordings were performed using PatchMaster (HEKA Electronic, Germany) software.
(§6) The fractional electrical distance from the external side of the membrane (δ) at which bound NFA blocked the current was calculated using the Woodhull equation: IC50(V)=IC50(0) exp (−δFV/RT), where IC50(V) is IC50 at the given membrane potential, IC50(0) – at 0 mV, V – membrane potential and F, R, T have their usual meanings. δ was determined from a plot of IC50 values against membrane potential.

[2] = molecular target: T2, homomeric α1 GlyR (Homo sapiens, UniProt P23415); assay: Whole-cell patch-clamp of glycine-induced currents, α1 GlyR expressed in CHO cells; assay type: cell-based; conditions: for inhibition at 30 µM / inhibition at 100 µM / inhibition at 300 µM: CHO, long protocol, read-out: inhibition of α1GlyR-mediated currents; for inhibition at 30 µM: NFA 30 μM; for inhibition at 100 µM: NFA 100 μM; for inhibition at 300 µM: NFA 300 μM
T2 construct: expressed in transfected cells; host or cells: CHO cells
T2 sequence (P23415 29-449 isoform P23415-2 limits assumed): T1 sequence (P23415 29-449 isoform P23415-2 G282A limits assumed) with A254G
Protocol: as §1, §2, §3, §4, §5, §6

[3] = +30 mV, glycine 30 μM, representative, read-out: NFA IC50 (representative IC50 curve)
[4] = +30 mV, glycine 100 μM, representative, read-out: NFA IC50 (representative IC50 curve)
[5] = +80 mV, glycine 30 μM, ramp protocol, mean ± SEM, read-out: IC50 of NFA
[6] = +80 mV, glycine 30 μM, representative, read-out: NFA IC50 (representative IC50 curve)
[7] = +80 mV, glycine 100 μM, representative, read-out: NFA IC50 (representative IC50 curve)
[8] = membrane potential 30 mV, glycine 30 μM
[9] = membrane potential 50 mV, glycine 30 μM
[10] = membrane potential 80 mV, glycine 30 μM
[11] = membrane potential −50 mV, glycine 30 μM
[12] = membrane potential −70 mV, glycine 30 μM
[13] = membrane potential −80 mV, glycine 30 μM
[14] = −30 mV, glycine 30 μM, representative, read-out: NFA IC50 (representative IC50 curve)
[15] = −30 mV, glycine 100 μM, representative, read-out: NFA IC50 (representative IC50 curve)
[16] = −80 mV, glycine 30 μM, representative, read-out: NFA IC50 (representative IC50 curve)
[17] = −80 mV, glycine 100 μM, representative, read-out: NFA IC50 (representative IC50 curve)

## O=C(O)c1cccnc1Nc1cccc(C(F)(F)F)c1 [NFA, Niflumic acid]
[1]; [3]
  IC50: 92 µM
[1]; [4]
  IC50: 106 µM
[1]; [5]
  IC50: 64 ± 10 µM
[1]; [6]
  IC50: 68 µM
[1]; [7]
  IC50: 57 µM
[1]; Vhold +30 mV, glycine 30 μM
  inhibition at 30 µM: 23 ± 7%
  inhibition at 100 µM: 43 ± 10%
  inhibition at 300 µM: 76 ± 4%
[1]; Vhold −30 mV, glycine 30 μM
  inhibition at 30 µM: 22 ± 4%
  inhibition at 100 µM: 34 ± 6%
  inhibition at 300 µM: 52 ± 11%
[1]; MP +80 mV, increased agonist concentration (glycine 100 μM), mean ± SEM, read-out: IC50 of NFA
  IC50: 58 ± 8 µM
[1]; at negative potentials, glycine 30 μM, ramp protocol, mean ± SEM, read-out: IC50 of NFA
  IC50: 257 ± 25 µM
[1]; both examined agonist concentrations, Woodhull analysis
  level of the NFA binding site from the extracellular side: ~ 30%
[1]; glycine 30 μM, Woodhull analysis
  Fractional electrical distance (δ) from the extracellular side of the membrane: 0.37 ± 0.04 (n = 9)
[1]; glycine 100 μM, Woodhull analysis
  Fractional electrical distance (δ) from the extracellular side of the membrane: 0.30 ± 0.04 (n = 7)
[1]; [8]
  Hill coefficient (nH) of NFA interaction: 1.3 ± 0.08
[1]; [9]
  Hill coefficient (nH) of NFA interaction: 1.36 ± 0.11
[1]; membrane potential 70 mV, glycine 30 μM
  Hill coefficient (nH) of NFA interaction: 1.26 ± 0.1
[1]; [10]
  Hill coefficient (nH) of NFA interaction: 1.22 ± 0.09
[1]; [11]
  Hill coefficient (nH) of NFA interaction: 1.37 ± 0.18
[1]; [12]
  Hill coefficient (nH) of NFA interaction: 1.34 ± 0.1
[1]; [13]
  Hill coefficient (nH) of NFA interaction: 1.46 ± 0.16
[1]; [14]
  IC50: 185 µM
[1]; [15]
  IC50: 190 µM
[1]; [16]
  IC50: 230 µM
[1]; [17]
  IC50: 260 µM
[2]; [3]
  IC50: 218 µM
[2]; [4]
  IC50: 107 µM
[2]; [5]
  IC50: 197 ± 18 µM
[2]; [6]
  IC50: 178 µM
[2]; +80 mV, glycine 100 μM, ramp protocol, mean ± SEM, read-out: IC50 of NFA
  IC50: 90 ± 8 µM
[2]; [7]
  IC50: 94 µM
[2]; Vhold +30 mV, glycine 30 μM
  inhibition at 30 µM: 16 ± 7%
  inhibition at 100 µM: 43 ± 11%
  inhibition at 300 µM: 75 ± 4%
[2]; Vhold −30 mV, glycine 30 μM
  inhibition at 30 µM: 3 ± 4%
  inhibition at 100 µM: 16 ± 6%
  inhibition at 300 µM: 48 ± 9%
[2]; glycine 30 μM
  Hill coefficient (nH) of NFA interaction: 1.5 ± 0.11
[2]; glycine 100 μM
  decrease of IC50 at +80 mV versus −80 mV: about 3 fold
[2]; [8]
  Hill coefficient (nH) of NFA interaction: 1.87 ± 0.02
[2]; [9]
  Hill coefficient (nH) of NFA interaction: 1.55 ± 0.08
[2]; [10]
  Hill coefficient (nH) of NFA interaction: 1.28 ± 0.07
[2]; [11]
  Hill coefficient (nH) of NFA interaction: 1.7 ± 0.08
[2]; [12]
  Hill coefficient (nH) of NFA interaction: 1.65 ± 0.08
[2]; [13]
  Hill coefficient (nH) of NFA interaction: 1.56 ± 0.07
[2]; overall statement in discussion
  Hill coefficient (nH) of NFA inhibitory action: ~1.5
[2]; [14]
  IC50: 256 µM
[2]; [15]
  IC50: 171 µM
[2]; −80 mV, glycine 30 μM, ramp protocol, mean ± SEM, read-out: IC50 of NFA
  IC50: 315 ± 30 µM
[2]; [16]
  IC50: 272 µM
[2]; −80 mV, glycine 100 μM, ramp protocol, mean ± SEM, read-out: IC50 of NFA
  IC50: 270 ± 26 µM
[2]; [17]
  IC50: 209 µM
